Experimental data reported in PMC5218480 (PLoS ONE, 2017).

Tested on: MV-4-11 cells
Experiment: Gene expression microarray analysis (Affymetrix PrimeView) and GSEA
Format: cell-based, human
Set-up: RFU PODN (11730768_x_at) / Fold change /veh PODN (11730768_x_at) / RFU LINC00158 (11744669_a_at) / Fold change /veh LINC00158 (11744669_a_at) / RFU DUSP10 (11751237_a_at) / Fold change /veh DUSP10 (11751237_a_at) / RFU ID3 (11757404_x_at) / Fold change /veh ID3 (11757404_x_at) / RFU PLEKHG5 (11737974_s_at) / Fold change /veh PLEKHG5 (11737974_s_at) / RFU LRRC4B (11730491_at) / Fold change /veh LRRC4B (11730491_at) / RFU GIMAP4 (11747438_a_at) / Fold change /veh GIMAP4 (11747438_a_at) / RFU KRT8 (11758183_x_at) / Fold change /veh KRT8 (11758183_x_at) / RFU CNN1 (11734310_a_at) / Fold change /veh CNN1 (11734310_a_at) / RFU VPS37D (11726825_at) / Fold change /veh VPS37D (11726825_at) / RFU C10orf10 (11716522_x_at) / Fold change /veh C10orf10 (11716522_x_at) / RFU KIR2DL2 /// KIR2DL4 /// KIR2DL5A /// KIR2DL5B /// KIR2DS1 /// KIR2DS2 /// KIR2DS3 /// KIR2DS4 /// KIR3DL3 /// KIR3DL3 /// KIR3DS1 (11738374_at) / Fold change /veh KIR2DL2 /// KIR2DL4 /// KIR2DL5A /// KIR2DL5B /// KIR2DS1 /// KIR2DS2 /// KIR2DS3 /// KIR2DS4 /// KIR3DL3 /// KIR3DL3 /// KIR3DS1 (11738374_at) / RFU C1QL1 (11718748_at) / Fold change /veh C1QL1 (11718748_at) / RFU TMPRSS4 (11747572_a_at) / Fold change /veh TMPRSS4 (11747572_a_at) / RFU HAMP (11756126_x_at) / Fold change /veh HAMP (11756126_x_at) / RFU RNFT2 (11725882_a_at) / Fold change /veh RNFT2 (11725882_a_at) / RFU NR4A2 (11747474_a_at) / Fold change /veh NR4A2 (11747474_a_at) / RFU ABCC12 (11746883_a_at) / Fold change /veh ABCC12 (11746883_a_at) / RFU TMEM136 (11760407_x_at) / Fold change /veh TMEM136 (11760407_x_at) / RFU CLDN22 /// WWC2 (11732394_at) / Fold change /veh CLDN22 /// WWC2 (11732394_at) / RFU HLA-DPB1 (11760878_x_at) / Fold change /veh HLA-DPB1 (11760878_x_at) / RFU SPINT1 (11716480_a_at) / Fold change /veh SPINT1 (11716480_a_at) / RFU GAP43 (11754022_s_at) / Fold change /veh GAP43 (11754022_s_at) / RFU A4GNT (11735810_at) / Fold change /veh A4GNT (11735810_at) / RFU PRB3 (11715151_x_at) / Fold change /veh PRB3 (11715151_x_at) / RFU TUBB4B (11761932_at) / Fold change /veh TUBB4B (11761932_at) / RFU CAPN14 (11732068_a_at) / Fold change /veh CAPN14 (11732068_a_at) / RFU TMCC2 (11721928_a_at) / Fold change /veh TMCC2 (11721928_a_at) / RFU IRGQ (11745062_a_at) / Fold change /veh IRGQ (11745062_a_at) / RFU FAM174B (11720279_a_at) / Fold change /veh FAM174B (11720279_a_at) / RFU TMPRSS4 (11748680_a_at) / Fold change /veh TMPRSS4 (11748680_a_at) / RFU FAM212B (11763350_a_at) / Fold change /veh FAM212B (11763350_a_at) / RFU PLEKHG5 (11743358_a_at) / Fold change /veh PLEKHG5 (11743358_a_at) / RFU ZSCAN30 (11745921_a_at) / Fold change /veh ZSCAN30 (11745921_a_at) / RFU CMKLR1 (11741424_a_at) / Fold change /veh CMKLR1 (11741424_a_at) / RFU LOC101060620 /// MAPK8IP1 (11723275_at) / Fold change /veh LOC101060620 /// MAPK8IP1 (11723275_at) / RFU SPTSSB (11747773_x_at) / Fold change /veh SPTSSB (11747773_x_at) / RFU PRSS12 (11739890_at) / Fold change /veh PRSS12 (11739890_at) / RFU BIN1 (11741810_x_at) / Fold change /veh BIN1 (11741810_x_at) / RFU WNT11 (11732464_a_at) / Fold change /veh WNT11 (11732464_a_at) / RFU C10orf10 (11716521_a_at) / Fold change /veh C10orf10 (11716521_a_at) / RFU C5orf56 (11738089_at) / Fold change /veh C5orf56 (11738089_at) / RFU CYB561 (11721691_x_at) / Fold change /veh CYB561 (11721691_x_at) / RFU ANKRD19P (11752326_a_at) / Fold change /veh ANKRD19P (11752326_a_at) / RFU OR2T12 /// OR2T33 /// OR2T8 (11738714_s_at) / Fold change /veh OR2T12 /// OR2T33 /// OR2T8 (11738714_s_at) / RFU VCAN (11748164_a_at) / Fold change /veh VCAN (11748164_a_at) / RFU JSRP1 (11732532_at) / Fold change /veh JSRP1 (11732532_at) / RFU KRTAP10-11 (11738290_x_at) / Fold change /veh KRTAP10-11 (11738290_x_at) / RFU MYO3A (11730013_a_at) / Fold change /veh MYO3A (11730013_a_at) / RFU EBF3 (11725865_a_at) / Fold change /veh EBF3 (11725865_a_at) / RFU CAMK2N1 (11719241_x_at) / Fold change /veh CAMK2N1 (11719241_x_at) / RFU C5orf56 (11738088_a_at) / Fold change /veh C5orf56 (11738088_a_at) / RFU OLFML3 (11715873_a_at) / Fold change /veh OLFML3 (11715873_a_at) / RFU LOC100653217 /// NTM (11731650_a_at) / Fold change /veh LOC100653217 /// NTM (11731650_a_at) / RFU MAPK11 (11762145_a_at) / Fold change /veh MAPK11 (11762145_a_at) / RFU FIZ1 (11724087_x_at) / Fold change /veh FIZ1 (11724087_x_at) / RFU OASL (11726364_x_at) / Fold change /veh OASL (11726364_x_at) / RFU SOX15 (11748057_x_at) / Fold change /veh SOX15 (11748057_x_at) / RFU CD79A (11719716_a_at) / Fold change /veh CD79A (11719716_a_at) / RFU HIST1H1D (11736915_at) / Fold change /veh HIST1H1D (11736915_at) / RFU CASKIN2 (11723855_a_at) / Fold change /veh CASKIN2 (11723855_a_at) / RFU LOC730098 (11760151_x_at) / Fold change /veh LOC730098 (11760151_x_at) / RFU OR4N2 (11742367_at) / Fold change /veh OR4N2 (11742367_at) / RFU PRRT2 (11749266_a_at) / Fold change /veh PRRT2 (11749266_a_at) / RFU SNX32 (11753110_a_at) / Fold change /veh SNX32 (11753110_a_at) / RFU CDHR5 (11726645_a_at) / Fold change /veh CDHR5 (11726645_a_at) / RFU RCAN1 (11760418_a_at) / Fold change /veh RCAN1 (11760418_a_at) / RFU FAM167A (11723789_a_at) / Fold change /veh FAM167A (11723789_a_at) / RFU FAM26E (11764081_at) / Fold change /veh FAM26E (11764081_at) / RFU ISYNA1 (11749810_s_at) / Fold change /veh ISYNA1 (11749810_s_at) / RFU ACY1 (11761880_at) / Fold change /veh ACY1 (11761880_at) / RFU 11764098_at / Fold change /veh 11764098_at / RFU SAMD14 (11745864_x_at) / Fold change /veh SAMD14 (11745864_x_at) / RFU NPB (11741838_a_at) / Fold change /veh NPB (11741838_a_at) / RFU TMPRSS6 (11731388_a_at) / Fold change /veh TMPRSS6 (11731388_a_at) / RFU KRTAP10-2 (11738614_at) / Fold change /veh KRTAP10-2 (11738614_at) / RFU ARHGAP8 /// PRR5-ARHGAP8 (11727945_x_at) / Fold change /veh ARHGAP8 /// PRR5-ARHGAP8 (11727945_x_at) / RFU KRTAP5-7 /// NADSYN1 (11734609_at) / Fold change /veh KRTAP5-7 /// NADSYN1 (11734609_at) / RFU RASL12 (11751679_a_at) / Fold change /veh RASL12 (11751679_a_at) / RFU CDKN2B (11736163_a_at) / Fold change /veh CDKN2B (11736163_a_at) / RFU PRF1 (11729649_at) / Fold change /veh PRF1 (11729649_at) / RFU, ZNF638 /// ZNF638-IT1 / Fold change vs veh, ZNF638 /// ZNF638-IT1 / RFU, PANK3 / Fold change vs veh, PANK3 / RFU, SH3YL1 / Fold change vs veh, SH3YL1 / RFU, ZEB2 / Fold change vs veh, ZEB2 / RFU, NRIP1 / Fold change vs veh, NRIP1 / RFU, PTTG1IP / Fold change vs veh, PTTG1IP / RFU, CAPN2 / Fold change vs veh, CAPN2 / RFU, MED14 / Fold change vs veh, MED14 / RFU, SNORA58 / Fold change vs veh, SNORA58 / RFU, C1orf63 / Fold change vs veh, C1orf63 / RFU, LRRFIP1 / Fold change vs veh, LRRFIP1 / RFU, NDUFAF7 / Fold change vs veh, NDUFAF7 / RFU, SLC12A2 / Fold change vs veh, SLC12A2 / RFU, IBTK / Fold change vs veh, IBTK / RFU, ESF1 / Fold change vs veh, ESF1 / Fold change vs veh, TMEM50B / RFU, TAOK1 / Fold change vs veh, TAOK1 / RFU, ACBD3 / Fold change vs veh, ACBD3 / RFU, TMA16 / Fold change vs veh, TMA16 / RFU, RWDD3 / Fold change vs veh, RWDD3 / RFU, BCAT1 / Fold change vs veh, BCAT1 / RFU, EDEM3 / Fold change vs veh, EDEM3 / RFU, TMEM33 / Fold change vs veh, TMEM33 / RFU, WDR75 / Fold change vs veh, WDR75 / RFU, AHCTF1 / Fold change vs veh, AHCTF1 / RFU, TFRC / Fold change vs veh, TFRC / RFU, ZDHHC17 / Fold change vs veh, ZDHHC17 / RFU, NOM1 / Fold change vs veh, NOM1 / RFU, ARL8B / Fold change vs veh, ARL8B / RFU, ZBTB11 / Fold change vs veh, ZBTB11 / RFU, TAMM41 / Fold change vs veh, TAMM41 / RFU, KIAA1704 /// LOC100996395 / Fold change vs veh, KIAA1704 /// LOC100996395 / RFU, ING1 / Fold change vs veh, ING1 / RFU, TRMT61B / Fold change vs veh, TRMT61B / RFU, FUBP3 / Fold change vs veh, FUBP3 / RFU, TP53 / Fold change vs veh, TP53 / RFU, TNKS2 / Fold change vs veh, TNKS2 / RFU, ZFP14 / Fold change vs veh, ZFP14 / RFU, ACTR2 / Fold change vs veh, ACTR2 / RFU, PPP3R1 / Fold change vs veh, PPP3R1 / RFU, PIK3R1 / Fold change vs veh, PIK3R1 / RFU, HNRNPA1 / Fold change vs veh, HNRNPA1 / RFU, RNF170 / Fold change vs veh, RNF170 / RFU, ZNF28 / Fold change vs veh, ZNF28 / RFU, RNGTT / Fold change vs veh, RNGTT / RFU, OGT / Fold change vs veh, OGT / RFU, BRD1 / Fold change vs veh, BRD1 / RFU, MARS / Fold change vs veh, MARS / RFU, ZNF655 / Fold change vs veh, ZNF655 / RFU, FAHD1 / Fold change vs veh, FAHD1 / RFU, BDP1 / Fold change vs veh, BDP1 / RFU, LRRCC1 / Fold change vs veh, LRRCC1 / RFU, ARID1A / Fold change vs veh, ARID1A / RFU, ZNF146 / Fold change vs veh, ZNF146 / RFU, ZNF330 / Fold change vs veh, ZNF330 / RFU, GPN3 / Fold change vs veh, GPN3 / RFU, C9orf123 / Fold change vs veh, C9orf123 / RFU, N4BP2L2 / Fold change vs veh, N4BP2L2 / RFU, ARFIP1 / Fold change vs veh, ARFIP1 / RFU, FAM179B / Fold change vs veh, FAM179B / RFU, BCL10 / Fold change vs veh, BCL10 / RFU, UHRF1BP1L / Fold change vs veh, UHRF1BP1L / RFU, BET1 / Fold change vs veh, BET1 / RFU, CNOT2 / Fold change vs veh, CNOT2 / RFU, ZNF268 / Fold change vs veh, ZNF268 / Fold change vs veh, ZNF507 / RFU, DGCR2 / Fold change vs veh, DGCR2 / RFU, WDSUB1 / Fold change vs veh, WDSUB1 / Fold change vs veh, HSP90B1 /// MIR3652 / RFU, ADSS / Fold change vs veh, ADSS / RFU, GK / Fold change vs veh, GK / RFU, ZNF148 / Fold change vs veh, ZNF148 / RFU, TAF9 / Fold change vs veh, TAF9 / RFU, SLC1A5 / Fold change vs veh, SLC1A5 / RFU, SLMO2 / Fold change vs veh, SLMO2 / RFU, ABCC4 / Fold change vs veh, ABCC4 / RFU, LOC101060439 /// RAP1B / Fold change vs veh, LOC101060439 /// RAP1B / RFU, RFX7 / Fold change vs veh, RFX7 / RFU, GTPBP10 / Fold change vs veh, GTPBP10 / RFU, CNEP1R1 / Fold change vs veh, CNEP1R1 / RFU, BIVM-ERCC5 /// ERCC5 / Fold change vs veh, BIVM-ERCC5 /// ERCC5 / RFU, ILF3 / Fold change vs veh, ILF3 / RFU 11762660_at / Fold change /veh 11762660_at / RFU VCAN (11757783_s_at) / Fold change /veh VCAN (11757783_s_at) / RFU DDX43 (11728927_at) / Fold change /veh DDX43 (11728927_at) / RFU KRT8 (11758188_x_at) / Fold change /veh KRT8 (11758188_x_at) / RFU NKD1 (11759106_at) / Fold change /veh NKD1 (11759106_at) / RFU SRD5A1 (11742802_a_at) / Fold change /veh SRD5A1 (11742802_a_at) / RFU TPSAB1 /// TPSB2 (11721975_s_at) / Fold change /veh TPSAB1 /// TPSB2 (11721975_s_at) / RFU GSTM3 (11746129_a_at) / Fold change /veh GSTM3 (11746129_a_at) / RFU IL23R (11737362_x_at) / Fold change /veh IL23R (11737362_x_at) / RFU TMEM51 (11727254_a_at) / Fold change /veh TMEM51 (11727254_a_at) / RFU PIWIL2 (11732686_x_at) / Fold change /veh PIWIL2 (11732686_x_at) / RFU ORM1 (11744905_x_at) / Fold change /veh ORM1 (11744905_x_at) / RFU CCDC152 (11743942_at) / Fold change /veh CCDC152 (11743942_at) / RFU ECM1 (11717891_a_at) / Fold change /veh ECM1 (11717891_a_at) / RFU IL23R (11748794_a_at) / Fold change /veh IL23R (11748794_a_at) / RFU TNFAIP8L3 (11732012_x_at) / Fold change /veh TNFAIP8L3 (11732012_x_at) / RFU MBOAT4 (11741988_at) / Fold change /veh MBOAT4 (11741988_at) / RFU 11764193_at / Fold change /veh 11764193_at / RFU TMEM53 (11763286_at) / Fold change /veh TMEM53 (11763286_at) / RFU MAGEB2 (11727129_at) / Fold change /veh MAGEB2 (11727129_at) / RFU TMEM200A (11744735_a_at) / Fold change /veh TMEM200A (11744735_a_at) / RFU CCDC152 (11751479_a_at) / Fold change /veh CCDC152 (11751479_a_at) / RFU FAM211A (11726209_a_at) / Fold change /veh FAM211A (11726209_a_at) / RFU RGS16 (11746705_a_at) / Fold change /veh RGS16 (11746705_a_at) / RFU VCAN (11755009_s_at) / Fold change /veh VCAN (11755009_s_at) / RFU RHOB (11743442_s_at) / Fold change /veh RHOB (11743442_s_at) / RFU RGS16 (11720943_a_at) / Fold change /veh RGS16 (11720943_a_at) / RFU RGS16 (11720944_at) / Fold change /veh RGS16 (11720944_at) / RFU, VPS4B / Fold change vs veh, VPS4B / RFU, CREB1 / Fold change vs veh, CREB1 / RFU, DNAJC13 / Fold change vs veh, DNAJC13 / RFU, GNAQ / Fold change vs veh, GNAQ / RFU, CDK5R1 / Fold change vs veh, CDK5R1 / RFU, ZRANB3 / Fold change vs veh, ZRANB3 / RFU, CUL4A / Fold change vs veh, CUL4A / RFU, CCNY / Fold change vs veh, CCNY / RFU, UFL1 / Fold change vs veh, UFL1 / RFU, COG3 / Fold change vs veh, COG3 / RFU, DIAPH2 / Fold change vs veh, DIAPH2 / RFU, SKA2 / Fold change vs veh, SKA2 / RFU, AFF3 / Fold change vs veh, AFF3 / RFU, LMF1 / Fold change vs veh, LMF1 / RFU, IPO11 / Fold change vs veh, IPO11 / RFU, DFFB / Fold change vs veh, DFFB / RFU, FOXP1 / Fold change vs veh, FOXP1 / RFU, CARD8 / Fold change vs veh, CARD8 / RFU, STRN3 / Fold change vs veh, STRN3 / RFU, ADK / Fold change vs veh, ADK / RFU, RASSF2 / Fold change vs veh, RASSF2 / RFU, WIPF1 / Fold change vs veh, WIPF1 / RFU, LARP1B / Fold change vs veh, LARP1B / RFU, RASA1 / Fold change vs veh, RASA1 / RFU, RB1 / Fold change vs veh, RB1 / RFU, PPFIA1 / Fold change vs veh, PPFIA1 / RFU, MAT2A / Fold change vs veh, MAT2A / RFU, CCT5 / Fold change vs veh, CCT5 / RFU, WDR92 / Fold change vs veh, WDR92 / RFU, CUX1 / Fold change vs veh, CUX1 / RFU, TTC7A / Fold change vs veh, TTC7A / RFU, TMEM135 / Fold change vs veh, TMEM135 / RFU, DEPTOR / Fold change vs veh, DEPTOR / RFU, CPM / Fold change vs veh, CPM / RFU, DNAJB6 / Fold change vs veh, DNAJB6 / RFU, CACNA2D3 / Fold change vs veh, CACNA2D3 / RFU, DTX4 / Fold change vs veh, DTX4 / RFU, TFCP2 / Fold change vs veh, TFCP2 / RFU, GMCL1 /// GMCL1P1 / Fold change vs veh, GMCL1 /// GMCL1P1 / RFU, AEBP2 / Fold change vs veh, AEBP2 / RFU, SNHG1 /// SNORD22 /// SNORD25 /// SNORD26 /// SNORD27 /// SNORD28 /// SNORD29 /// SNORD31 / Fold change vs veh, SNHG1 /// SNORD22 /// SNORD25 /// SNORD26 /// SNORD27 /// SNORD28 /// SNORD29 /// SNORD31 / Fold change (Aza/veh), C12orf56 (ProbeSet 11735607_a_at) / Fold change (ACY-1035/veh), C12orf56 (ProbeSet 11735607_a_at) / Fold change (Aza/veh), FGFR1OP (ProbeSet 11751329_s_at) / Fold change (ACY-1035/veh), FGFR1OP (ProbeSet 11751329_s_at) / Fold change (Aza/veh), VPS36 (ProbeSet 11739960_a_at) / Fold change (ACY-1035/veh), VPS36 (ProbeSet 11739960_a_at) / RFU SYPL1 (11715823_x_at) / Fold change /veh SYPL1 (11715823_x_at) / RFU IGFBP7 (11715501_s_at) / Fold change /veh IGFBP7 (11715501_s_at) / RFU REEP3 (11722064_at) / Fold change /veh REEP3 (11722064_at) / RFU IGLL1 (11728026_x_at) / Fold change /veh IGLL1 (11728026_x_at): dose or concentration left out as unconfirmed
Settings: ProbeSet 11719185_x_at; LIST B

Nc1ncn([C@@H]2O[C@H](CO)[C@@H](O)[C@H]2O)c(=O)n1 [azacitidine]
Fold change vs veh, N4BP2L2: 0.90
